How the values were obtained:
Rattus norvegicus [1] = experiment: Percent inhibition of gastric lesions (length = 61.5+/-4.4) induced by ethanol was measured, after administration of 10 mg/kg po in NEM-pretreated rats; assay type: functional; conditions: Stomach
Rattus norvegicus [2] = experiment: Reduction in length (control value = 124.3+/-7.8) of gastric lesions induced by ethanol was measured, after administration of 10 mg/kg po in indomethacin-pretreated rats; assay type: functional, Stomach
Rattus norvegicus [3] = experiment: Percent inhibition of gastric lesions (length = 60.8+/-11.6) induced by ethanol was measured, after administration of 5 mg/kg po in L-NAME-pretreated rats; assay type: functional; conditions: Stomach
Rattus norvegicus [4] = experiment: Acid output from the stomach (control value = 119.7+/-11.7) in pylorus ligated rats (5 mg/kg po of the Compound was administered 1 hr before the pylorus ligation); assay type: functional
Rattus norvegicus [5] = experiment: Reduction in length (control value = 169.6+/-1.9) of gastric lesions induced by ethanol was measured, after administration of 5 mg/kg po in NEM-pretreated rats; assay type: functional, Stomach
Rattus norvegicus [6] = experiment: Reduction in length (control value = 126.1+/-5.7) of gastric lesions induced by ethanol was measured, after administration of 5 mg/kg po in rats; assay type: functional, Stomach
Rattus norvegicus [7] = experiment: Reduction in length (control value = 206.7+/-6.3) of gastric lesions induced by endomethacin was measured, after administration of 5 mg/kg po NEM-pretreated in rats; assay type: functional, Stomach
Rattus norvegicus [8] = experiment: Percent inhibition of gastric lesions induced by endomethacin was measured, after administration of 10 mg/kg po in rats; assay type: functional; conditions: Stomach
Rattus norvegicus [9] = experiment: Reduction in length (control value = 188.7+/-10.5) of gastric lesions induced by ethanol was measured, after administration of 5 mg/kg po in L-NAME-pretreated rats; assay type: functional, Stomach
Rattus norvegicus [10] = experiment: Percent inhibition of gastric lesions (length = 31.4+/-3.8) induced by ethanol was measured, after administration of 10 mg/kg po in L-NAME-pretreated rats; assay type: functional; conditions: Stomach
Rattus norvegicus [11] = experiment: Reduction in length (control value = 126.1+/-5.7) of gastric lesions induced by ethanol was measured, after administration of 2.5 mg/kg po in rats; assay type: functional, Stomach
Rattus norvegicus [12] = experiment: pH of the gastric juice (Control value = 1.44+/-0.01) of stomach content of pylorus ligated rats was measured ( 5 mg/kg po of the Compound was administered 1 hr before the pylorus ligation); assay type: ADME, organism-based; set-up: dose 5 mg/kg, route oral; conditions: in vivo
Rattus norvegicus [13] = experiment: Percent inhibition of gastric lesions induced by endomethacin was measured, after administration of 5 mg/kg po in rats; assay type: functional; conditions: Stomach
Rattus norvegicus [14] = experiment: Percent inhibition of gastric lesions (length = 96.1+/-13.7) induced by ethanol was measured, after administration of 10 mg/kg po in endomethacin pretreated rats; assay type: functional; conditions: Stomach
Rattus norvegicus [15] = experiment: Volume of the gastric juice (Control value = 4.9+/-0.3) of stomach content of pylorus ligated rats was measured (10 mg/kg po of the Compound was administered 1 hr before the pylorus ligation); assay type: functional
Rattus norvegicus [16] = experiment: Reduction in length (control value = 126.1+/-5.7) of gastric lesions induced by ethanol was measured, after administration of 10 mg/kg po in rats; assay type: functional, Stomach
Rattus norvegicus [17] = experiment: Reduction in length (control value = 70.8+/-5.3) of gastric lesions induced by endomethacin was measured, after administration of 10 mg/kg po in rats; assay type: functional, Stomach
Rattus norvegicus [18] = experiment: Volume of the gastric juice (Control value = 4.9+/-0.3) of stomach content of pylorus ligated rats was measured (5 mg/kg po of the Compound was administered 1 hr before the pylorus ligation); assay type: functional
Rattus norvegicus [19] = experiment: Percent inhibition of gastric lesions induced by ethanol was measured, after administration of 2.5 mg/kg po in rats; assay type: functional; conditions: Stomach
Rattus norvegicus [20] = experiment: pH of the gastric juice (Control value = 1.44+/-0.01) of stomach content of pylorus ligated rats was measured (10 mg/kg po of the Compound was administered 1 hr before the pylorus ligation); assay type: ADME, organism-based; conditions: in vivo
Rattus norvegicus [21] = experiment: Percent inhibition of gastric lesions induced by ethanol was measured, after administration of 5 mg/kg po in rats; assay type: functional; conditions: Stomach
Rattus norvegicus [22] = experiment: Percent inhibition of gastric lesions (length = 35.7+/-2.3) induced by ethanol was measured, after administration of 5 mg/kg po in rats; assay type: functional; conditions: Stomach
Rattus norvegicus [23] = experiment: Percent inhibition of gastric lesions (length = 15.3+/-2.9) induced by ethanol was measured, after administration of 10 mg/kg po in rats; assay type: functional; conditions: Stomach
Rattus norvegicus [24] = experiment: Percent inhibition of gastric lesions (length = 102.2+/-8.1) induced by ethanol was measured, after administration of 5 mg/kg po in endomethacin pretreated rats; assay type: functional; conditions: Stomach
Rattus norvegicus [25] = experiment: Reduction in length (control value = 124.3+/-7.8) of gastric lesions induced by ethanol was measured, after administration of 5 mg/kg po in indomethacin-pretreated rats; assay type: functional, Stomach
Rattus norvegicus [26] = experiment: Reduction in length (control value = 169.6+/-1.9) of gastric lesions induced by ethanol was measured, after administration of 10 mg/kg po in NEM-pretreated rats; assay type: functional, Stomach
Rattus norvegicus [27] = experiment: Reduction in length (control value = 70.8+/-5.3) of gastric lesions induced by endomethacin was measured, after administration of 5 mg/kg po in rats; assay type: functional, Stomach
Rattus norvegicus [28] = experiment: Percent inhibition of gastric lesions induced by ethanol was measured, after administration of 10 mg/kg po in rats; assay type: functional; conditions: Stomach
Rattus norvegicus [29] = experiment: Reduction in length (control value = 70.8+/-5.3) of gastric lesions induced by endomethacin was measured, after administration of 2.5 mg/kg po in rats; assay type: functional, Stomach
Rattus norvegicus [30] = experiment: Percent inhibition of gastric lesions (length = 92.3+/-9) induced by ethanol was measured, after administration of 5 mg/kg po in NEM-pretreated rats; assay type: functional; conditions: Stomach
Rattus norvegicus [31] = experiment: Acid output from the stomach (control value = 119.7+/-11.7) in pylorus ligated rats (10 mg/kg po of the Compound was administered 1 hr before the pylorus ligation); assay type: functional
Rattus norvegicus [32] = experiment: Percent inhibition of gastric lesions induced by endomethacin was measured, after administration of 2.5 mg/kg po in rats; assay type: functional; conditions: Stomach
Rattus norvegicus [33] = experiment: Reduction in length (control value = 54.6+/-16.5) of gastric lesions induced by endomethacin was measured, after administration of 10 mg/kg po in rats; assay type: functional, Stomach
Rattus norvegicus [34] = experiment: Reduction in length (control value = 107+/-14.5) of gastric lesions induced by ethanol was measured, after administration of 2.5 mg/kg po in rats; assay type: functional, Stomach
Rattus norvegicus [35] = experiment: Reduction in length (control value = 138+/-12.1) of gastric lesions induced by ethanol was measured, after administration of 10 mg/kg po in rats; assay type: functional, Stomach
Rattus norvegicus [36] = experiment: Reduction in length (control value = 62.8+/-12.4) of gastric lesions induced by endomethacin was measured, after administration of 10 mg/kg po in rats; assay type: functional, Stomach
Rattus norvegicus [37] = experiment: Reduction in length ((control value = 126+/-9.1)of gastric lesions induced by ethanol was measured, after administration of 2.5 mg/kg po in rats; assay type: functional, Stomach
Rattus norvegicus [38] = experiment: Reduction in length (control value = 88.9+/-5.5) of gastric lesions induced by endomethacin was measured, after administration of 5 mg/kg po in rats; assay type: functional, Stomach
Rattus norvegicus [39] = experiment: Reduction in length (control value = 126+/-9.1) of gastric lesions induced by ethanol was measured, after administration of 5 mg/kg po in rats; assay type: functional, Stomach
Rattus norvegicus [40] = experiment: Reduction in length ((control value = 126+/-9.1) of gastric lesions induced by ethanol was measured, after administration of 2.5 mg/kg po in rats; assay type: functional, Stomach

## C[C@@H]1CC[C@@]2(OC1)OC1C[C@H]3[C@@H]4CC=C5C[C@@H](O[C@@H]6O[C@H](CO)[C@@H](O[C@@H]7O[C@@H](CO)[C@H](O)[C@H]7O)[C@H](O)[C@H]6O[C@@H]6O[C@@H](C)[C@H](O)[C@@H](O)[C@H]6O)CC[C@]5(C)[C@H]4CC[C@]3(C)C1[C@@H]2C (some centres not stated)
Rattus norvegicus [1]
  inhibition in vivo at 10 mg/kg: 63.7%
Rattus norvegicus [2]
  Length: 96.1 mm
Rattus norvegicus [3]
  inhibition in vivo at 5 mg/kg: 67.8%
Rattus norvegicus [4]
  Acid output: 100.5 u equiv hr-1
Rattus norvegicus [5]
  Length: 92.3 mm
Rattus norvegicus [6]
  Length: 46.5 mm
Rattus norvegicus [7]
  Length: 61.5 mm
Rattus norvegicus [8]
  inhibition in vivo at 10 mg/kg: 84.6%
Rattus norvegicus [9]
  Length: 60.8 mm
Rattus norvegicus [10]
  inhibition in vivo at 10 mg/kg: 83.4%
Rattus norvegicus [11]
  Length: 76.1 mm
Rattus norvegicus [12]
  pH: 1.47
Rattus norvegicus [13]
  inhibition in vivo at 5 mg/kg: 67.2%
Rattus norvegicus [14]
  inhibition in vivo at 10 mg/kg: 22.7%
Rattus norvegicus [15]
  Volume: 3.6 ml 4hr-1
Rattus norvegicus [16]
  Length: 11.4 mm
Rattus norvegicus [17]
  Length: 10.9 mm
Rattus norvegicus [18]
  Volume: 4.4 ml 4hr-1
Rattus norvegicus [19]
  inhibition in vivo at 2.5 mg/kg: 39.7%
Rattus norvegicus [20]
  pH: 1.48
Rattus norvegicus [21]
  inhibition in vivo at 5 mg/kg: 63.1%
Rattus norvegicus [22]
  inhibition in vivo at 5 mg/kg: 69.3%
Rattus norvegicus [23]
  inhibition in vivo at 10 mg/kg: 86.9%
Rattus norvegicus [24]
  inhibition in vivo at 5 mg/kg: 17.8%
Rattus norvegicus [25]
  Length: 102 mm
Rattus norvegicus [26]
  Length: 31.4 mm
Rattus norvegicus [27]
  Length: 23.2 mm
Rattus norvegicus [28]
  inhibition in vivo at 10 mg/kg: 91%
Rattus norvegicus [29]
  Length: 27.9 mm
Rattus norvegicus [30]
  inhibition in vivo at 5 mg/kg: 45.6%
Rattus norvegicus [31]
  Acid output: 82.1 u equiv hr-1
Rattus norvegicus [32]
  inhibition in vivo at 2.5 mg/kg: 60.6%

## C[C@@H]1CC[C@@]2(OC1)O[C@H]1C[C@H]3[C@@H]4CC=C5C[C@@H](O)CC[C@]5(C)[C@H]4CC[C@]3(C)[C@H]1[C@@H]2C [DISOGENIN]
Rattus norvegicus [8]
  inhibition in vivo at 10 mg/kg: 8.6%
Rattus norvegicus [33]
  Length: 49.9 mm
Rattus norvegicus [34]
  Length: 76.9 mm
Rattus norvegicus [28]
  inhibition in vivo at 10 mg/kg: 28.1%

## CC1CC[C@@]2(OC1)OC1CC3C4CC=C5C[C@@H](O)CC[C@]5(C)C4CC[C@]3(C)[C@@]1(O)[C@@H]2C (some centres not stated)
Rattus norvegicus [8]
  inhibition in vivo at 10 mg/kg: 6.8%
Rattus norvegicus [35]
  Length: 134 mm
Rattus norvegicus [36]
  Length: 67.1 mm
Rattus norvegicus [28]
  inhibition in vivo at 10 mg/kg: 2.5%

## C[C@H](CCC1(O)OC2CC3C4CC=C5C[C@@H](O[C@@H]6O[C@H](CO)[C@@H](O)[C@H](O)[C@H]6O[C@@H]6O[C@@H](C)[C@H](O)[C@@H](O)[C@H]6O)CC[C@]5(C)C4CC[C@]3(C)C2[C@@H]1C)CO[C@@H]1O[C@H](CO)[C@@H](O)[C@H](O)[C@H]1O (some centres not stated) [TRIGOFOENOSIDE A]
Rattus norvegicus [37]
  Length: 93 mm
Rattus norvegicus [38]
  Length: 74.7 mm
Rattus norvegicus [39]
  Length: 111 mm
Rattus norvegicus [13]
  inhibition in vivo at 5 mg/kg: 16%
Rattus norvegicus [19]
  inhibition in vivo at 2.5 mg/kg: 26.2%
Rattus norvegicus [21]
  inhibition in vivo at 5 mg/kg: 11.7%

## C[C@H](CCC1(O)OC2CC3C4CC=C5C[C@@H](O[C@@H]6O[C@H](CO)C(O[C@@H]7O[C@@H](CO)[C@H](O)[C@H]7O)[C@@H](O)[C@H]6O[C@@H]6O[C@@H](C)[C@H](O)[C@@H](O)[C@H]6O)CC[C@]5(C)C4CC[C@]3(C)C2[C@@H]1C)CO[C@@H]1O[C@H](CO)[C@@H](O)[C@H](O)[C@H]1O (some centres not stated) [PARISAPONIN I]
Rattus norvegicus [38]
  Length: 82.5 mm
Rattus norvegicus [39]
  Length: 106 mm
Rattus norvegicus [13]
  inhibition in vivo at 5 mg/kg: 7.2%
Rattus norvegicus [40]
  Length: 114 mm
Rattus norvegicus [19]
  inhibition in vivo at 2.5 mg/kg: 9.2%
Rattus norvegicus [21]
  inhibition in vivo at 5 mg/kg: 15.6%
